Test results published in patent publication US20250203808A1, “REFRIGERANTS FOR AND METHODS OF COOLING ELECTRONICS” (HONEYWELL INTERNATIONAL INC., priority 2023, published 2025).
Like-named read-outs stand apart in the source and are kept apart here.

Legend:
[1] = background, commercial 3M fluids; cited from earlier work
[2] = background, commercial 3M fluids; cited from earlier work; remark: listed apart in the source
[3] = Dielectric constant and dissipation factor, Agilent 85070 Dielectric Probe, 20 GHz; type: physicochemical; conditions: values 'about'; for Dielectric Constant (20 GHz): room temperature
Experimental: “Dielectric Constant” means the dielectric constant as measured in accordance with ASTM D150-11 at room temperature at 20 giga hertz (GHz).
(§1) The boiling point (“BP”) and dielectric constant (“Dk”) of HFO-1438ez(E) and HFO-1438ez(Z) were determined and the results are reported below in Table E1. Static dielectric constant for new molecules was calculated using Kirkwood theory as described in papers by Wang and Anderko [P. Wang and A. Anderko, Computation of dielectric constants of solvent mixtures and electrolyte solutions, Fluid Phase Equilibria 186 (2001) 103-122] and Harvey and Lemmon [A. H. Harvey and E. W. Lemmon, Method for estimating dielectric constant of natural gas mixtures, International Journal of Thermophysics 26 (2005) 31-46]. The dielectric property of each of HFO-1438ez(E) and HFO-1438ez(Z) was determined using the Agilent 85070 Dielectric Probe. All measurements were made at ambient pressure and room temperature (approximately 23° C.). Prior to making measurements, the system was calibrated from 1 GHz to 20 GHz with an open circuit, a short circuit, and DI water (@22.4° C.) standard. The result of the calibration is shown in the Table E1 below for DI H2O, and is consistent with DI water at 22.4° C. The accuracy of the probe is given as: Dielectric constant, er′=er′+/−0.05|er*| with er″=er″+/−0.05|er*| and (loss=er″/er′).

[4] = Boiling point determination; type: physicochemical; conditions: for boiling point: Table 1, values understood as 'about'; for BP: Table E1
Experimental: as §1

SMILES | boiling point [1] [°C] | dielectric constant [2] | Dielectric Constant (20 GHz) [3] | Dissipation Factor (20 GHz) [3] | boiling point [4] [°C] | BP [4] [°C]
FC(F)(F)N1C(F)(F)C(F)(F)OC(F)(F)C1(F)F [FC-3284] | 50 | – | – | – | – | –
COC(F)(F)C(F)(F)C(F)(F)F [HFE7000, 1-methoxyheptafluoropropane (C3F7OCH3)] | 34 | 7.4 | – | – | – | –
F/C=C/C(F)(C(F)(F)F)C(F)(F)F [HFO-1438ezy(E), (E)-1,3,4,4,4-pentafluoro-(3-trifluoromethyl)-but-1-ene] | – | – | 2.43 | 0.09 | 28 | 30
F/C=C\C(F)(C(F)(F)F)C(F)(F)F [HFO-1438ezy(Z), (Z)-1,3,4,4,4-pentafluoro-(3-trifluoromethyl)-but-1-ene] | – | – | 7.8 | – | 55 | 55
